Measured values taken from ChEMBL document CHEMBL3112495, “Diphenylpyridylethanamine (DPPE)-based aminoheterocycles as cholesteryl ester transfer protein inhibitors” (Bioorg Med Chem Lett, 2014).
Blank lines part the entries; values can stand above or below the molecule they belong to.

Columns and labels:
[1] = target: T1, Cholesteryl ester transfer protein (Homo sapiens, UniProt P11597); assay: Inhibition of human recombinant CETP using [3H]-CE/HDL by scintillation proximity assay
T1 sequence (P11597 whole entry): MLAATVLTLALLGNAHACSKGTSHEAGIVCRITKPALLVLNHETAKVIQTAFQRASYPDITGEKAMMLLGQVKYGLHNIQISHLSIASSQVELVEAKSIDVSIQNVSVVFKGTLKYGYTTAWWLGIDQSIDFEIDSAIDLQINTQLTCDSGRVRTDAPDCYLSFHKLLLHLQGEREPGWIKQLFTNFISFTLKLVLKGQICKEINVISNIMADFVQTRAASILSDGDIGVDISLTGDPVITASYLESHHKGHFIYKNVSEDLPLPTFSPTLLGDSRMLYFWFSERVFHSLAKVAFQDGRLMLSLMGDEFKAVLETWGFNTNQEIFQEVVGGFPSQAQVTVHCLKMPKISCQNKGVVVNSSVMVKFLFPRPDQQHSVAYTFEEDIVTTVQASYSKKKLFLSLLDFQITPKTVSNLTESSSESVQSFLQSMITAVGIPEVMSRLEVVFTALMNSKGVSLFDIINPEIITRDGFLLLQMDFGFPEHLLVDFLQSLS

[2] = target: T1, Cholesteryl ester transfer protein; assay: Inhibition of CETP in human whole plasma using [3H]-CE/HDL after 10 mins
Cytochrome P450 2C19 = Cytochrome P450 2C19 (Homo sapiens, UniProt P33261); assay: Inhibition of CYP2C19 (unknown origin); assay type: ADME
Sequence of Cytochrome P450 2C19 (P33261 whole entry): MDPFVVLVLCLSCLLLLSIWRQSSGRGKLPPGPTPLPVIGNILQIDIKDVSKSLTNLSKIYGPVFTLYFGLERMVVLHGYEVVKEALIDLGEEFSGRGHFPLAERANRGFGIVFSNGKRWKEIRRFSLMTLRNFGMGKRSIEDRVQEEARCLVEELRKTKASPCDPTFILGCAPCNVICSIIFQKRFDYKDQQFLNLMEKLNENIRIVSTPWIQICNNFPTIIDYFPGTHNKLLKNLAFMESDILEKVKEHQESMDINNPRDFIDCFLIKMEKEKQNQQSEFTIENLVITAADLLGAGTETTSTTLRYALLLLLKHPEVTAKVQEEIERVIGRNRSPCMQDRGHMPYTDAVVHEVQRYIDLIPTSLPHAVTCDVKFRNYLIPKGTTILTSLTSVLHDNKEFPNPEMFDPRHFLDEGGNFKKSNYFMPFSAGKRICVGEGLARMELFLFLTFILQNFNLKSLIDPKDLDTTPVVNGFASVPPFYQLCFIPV

Cytochrome P450 3A4 [3] = target: T2, Cytochrome P450 3A4 (Homo sapiens, UniProt P08684); assay: Inhibition of CYP3A4 (unknown origin) using benzyloxyresorufin as substrate; assay type: ADME
T2 sequence (P08684 whole entry): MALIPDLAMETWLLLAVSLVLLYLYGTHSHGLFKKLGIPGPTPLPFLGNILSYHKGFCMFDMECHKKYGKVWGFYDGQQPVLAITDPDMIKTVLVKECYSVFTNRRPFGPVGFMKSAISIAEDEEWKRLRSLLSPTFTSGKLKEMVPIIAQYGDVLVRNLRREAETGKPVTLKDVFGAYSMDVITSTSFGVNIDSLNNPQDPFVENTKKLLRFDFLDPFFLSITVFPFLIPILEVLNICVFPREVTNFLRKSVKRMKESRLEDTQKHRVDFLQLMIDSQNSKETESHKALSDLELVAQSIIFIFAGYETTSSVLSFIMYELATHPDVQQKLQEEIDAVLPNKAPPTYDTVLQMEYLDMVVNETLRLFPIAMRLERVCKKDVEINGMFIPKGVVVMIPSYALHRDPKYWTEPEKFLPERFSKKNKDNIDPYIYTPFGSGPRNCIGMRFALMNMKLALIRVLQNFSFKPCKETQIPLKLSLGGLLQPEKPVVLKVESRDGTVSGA

[4] = Metabolic stability of the compound in mouse liver microsomes assessed as compound remaining after 10 mins; assay type: ADME, Microsome; conditions: read-out: Stability
[5] = target: T3, Nuclear receptor subfamily 1 group I member 2 (Homo sapiens, UniProt O75469); assay: Activation of PXR (unknown origin)
T3 sequence (O75469 whole entry): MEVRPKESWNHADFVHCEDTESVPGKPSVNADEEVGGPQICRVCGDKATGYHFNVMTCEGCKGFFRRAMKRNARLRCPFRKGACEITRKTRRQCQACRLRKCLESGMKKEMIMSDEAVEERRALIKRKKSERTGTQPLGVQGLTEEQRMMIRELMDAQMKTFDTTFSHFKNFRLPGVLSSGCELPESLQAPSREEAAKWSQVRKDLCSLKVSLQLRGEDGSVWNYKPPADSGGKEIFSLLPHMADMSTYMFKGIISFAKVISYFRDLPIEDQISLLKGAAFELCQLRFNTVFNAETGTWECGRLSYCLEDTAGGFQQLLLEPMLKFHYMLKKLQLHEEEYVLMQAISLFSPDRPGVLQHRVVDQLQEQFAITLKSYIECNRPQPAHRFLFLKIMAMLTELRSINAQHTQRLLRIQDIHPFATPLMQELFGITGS

Cytochrome P450 2C9 = Cytochrome P450 2C9 (Homo sapiens, UniProt P11712); assay: Inhibition of CYP2C9 (unknown origin); assay type: ADME
Sequence of Cytochrome P450 2C9 (P11712 whole entry): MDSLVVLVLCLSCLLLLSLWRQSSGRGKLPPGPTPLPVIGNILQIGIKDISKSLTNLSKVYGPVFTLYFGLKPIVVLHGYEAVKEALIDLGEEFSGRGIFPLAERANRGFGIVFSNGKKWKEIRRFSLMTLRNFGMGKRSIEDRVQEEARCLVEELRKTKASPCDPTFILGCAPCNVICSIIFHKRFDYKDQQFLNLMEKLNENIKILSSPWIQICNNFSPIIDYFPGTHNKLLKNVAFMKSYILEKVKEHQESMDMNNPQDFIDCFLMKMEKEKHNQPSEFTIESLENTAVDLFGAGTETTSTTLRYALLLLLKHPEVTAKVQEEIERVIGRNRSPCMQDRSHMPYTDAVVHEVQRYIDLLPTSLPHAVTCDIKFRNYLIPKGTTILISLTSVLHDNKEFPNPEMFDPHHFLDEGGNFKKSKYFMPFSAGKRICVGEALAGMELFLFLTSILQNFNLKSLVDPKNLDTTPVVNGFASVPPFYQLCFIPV

PXR = target: T4, PXR (Homo sapiens, UniProt O75469); assay: Activation of PXR (unknown origin) relative to rifampicin
T4 sequence (O75469 whole entry): T3 sequence (O75469 whole entry)

[6] = Metabolic stability of the compound in rat liver microsomes assessed as compound remaining after 10 mins; assay type: ADME; conditions: read-out: Stability
Cytochrome P450 2D6 = Cytochrome P450 2D6 (Homo sapiens, UniProt P10635); assay: Inhibition of CYP2D6 (unknown origin); assay type: ADME
Sequence of Cytochrome P450 2D6 (P10635 whole entry): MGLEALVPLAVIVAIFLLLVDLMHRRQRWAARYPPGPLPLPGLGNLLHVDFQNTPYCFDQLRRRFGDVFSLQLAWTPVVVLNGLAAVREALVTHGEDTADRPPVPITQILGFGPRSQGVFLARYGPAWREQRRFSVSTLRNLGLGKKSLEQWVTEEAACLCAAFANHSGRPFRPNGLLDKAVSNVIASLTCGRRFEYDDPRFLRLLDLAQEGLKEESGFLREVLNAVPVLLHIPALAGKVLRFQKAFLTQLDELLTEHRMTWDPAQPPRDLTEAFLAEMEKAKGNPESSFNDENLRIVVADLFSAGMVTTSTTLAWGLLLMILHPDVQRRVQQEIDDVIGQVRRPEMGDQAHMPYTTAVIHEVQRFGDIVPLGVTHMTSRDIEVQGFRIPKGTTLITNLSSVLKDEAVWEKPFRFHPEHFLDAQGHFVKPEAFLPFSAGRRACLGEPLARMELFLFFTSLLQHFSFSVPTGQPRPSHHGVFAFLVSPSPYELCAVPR

Cytochrome P450 1A2 = target: T5, Cytochrome P450 1A2 (Homo sapiens, UniProt P05177); assay: Inhibition of CYP1A2 (unknown origin); assay type: ADME
T5 sequence (P05177 whole entry): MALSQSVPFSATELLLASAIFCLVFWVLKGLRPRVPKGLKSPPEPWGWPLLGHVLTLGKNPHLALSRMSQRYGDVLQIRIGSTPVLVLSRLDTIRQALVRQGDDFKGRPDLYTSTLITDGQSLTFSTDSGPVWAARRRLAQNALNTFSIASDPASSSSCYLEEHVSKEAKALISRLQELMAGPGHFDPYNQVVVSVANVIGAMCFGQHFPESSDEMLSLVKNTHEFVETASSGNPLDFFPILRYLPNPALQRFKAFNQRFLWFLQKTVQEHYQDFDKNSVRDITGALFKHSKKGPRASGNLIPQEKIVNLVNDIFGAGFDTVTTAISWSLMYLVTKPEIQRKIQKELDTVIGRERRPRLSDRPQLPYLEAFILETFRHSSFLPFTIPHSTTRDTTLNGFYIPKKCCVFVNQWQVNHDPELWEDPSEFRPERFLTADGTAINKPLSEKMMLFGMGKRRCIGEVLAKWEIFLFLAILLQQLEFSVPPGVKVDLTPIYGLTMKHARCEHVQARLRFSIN

Cytochrome P450 3A4 [7] = target: T2, Cytochrome P450 3A4; assay: Inhibition of CYP3A4 (unknown origin) using 7-benzyloxy-4-trifluoromethylcoumarin as substrate; assay type: ADME
[8] = Metabolic stability of the compound in human liver microsomes assessed as compound remaining after 10 mins; assay type: ADME; conditions: read-out: Stability
Mus musculus = assay: Inhibition of CETP in hCETP/apo B-100 transgenic mouse at 30 mg/kg, po after 8 hrs; assay type: functional
[9] = AUC in hCETP/apo B-100 transgenic mouse at 30 mg/kg, po; assay type: ADME, organism-based; set-up: dose 30 mg/kg, route oral; conditions: plasma
[10] = Plasma concentration in hCETP/apo B-100 transgenic mouse at 30 mg/kg, po after 2 hrs; assay type: ADME, organism-based; set-up: dose 30 mg/kg, route oral
[11] = Plasma concentration in hCETP/apo B-100 transgenic mouse at 30 mg/kg, po after 4 hrs; assay type: ADME, organism-based; set-up: dose 30 mg/kg, route oral
[12] = Plasma concentration in hCETP/apo B-100 transgenic mouse at 30 mg/kg, po after 8 hrs; assay type: ADME, organism-based; set-up: dose 30 mg/kg, route oral

SMILES: Fc1cc(OC(F)(F)C(F)F)cc([C@@](Cc2ccccc2)(Nc2nc3c(s2)CCCC3)c2ccc(Cl)cn2)c1
IC50 [1]: 0.02 µM
IC50 [2]: 4.2 µM

SMILES: Cc1nc(N[C@](Cc2ccccc2)(c2cc(F)cc(C(F)(F)F)c2)c2ccc(Cl)cn2)sc1C
IC50 [1]: 0.04 µM
IC50 [2]: 17.3 µM

SMILES: O=C(NC1CCCC1)N[C@@](Cc1ccccc1)(c1cc(F)cc(OC(F)(F)C(F)F)c1)c1ccc(Cl)cn1
IC50 (Cytochrome P450 2C19): 17 µM
IC50 (Cytochrome P450 3A4 [3]): 3.6 µM
remaining at 10 min [4]: 4%
EC60 [5]: 0.7 µM
IC50 (Cytochrome P450 2C9): 4.4 µM
Emax (PXR): 88%
remaining at 10 min [6]: 12%
IC50 (Cytochrome P450 2D6): 15 µM
IC50 (Cytochrome P450 1A2): 40 µM
IC50 (Cytochrome P450 3A4 [7]): 8.8 µM
remaining at 10 min [8]: 10%

SMILES: O=C(NC1CCCC1)N[C@@](Cc1ccccc1)(c1cc(F)cc(C(F)(F)F)c1)c1ccc(Cl)cn1
inhibition in vivo at 30 mg/kg (Mus musculus): 56%
AUC [9]: 5.71 µM·h
concentration at 2 h [10]: 1750 nM
concentration at 4 h [11]: 1010 nM

SMILES: Fc1cc(OC(F)(F)C(F)F)cc([C@@](Cc2ccccc2)(Nc2nc(C(F)(F)F)c(Br)s2)c2ccc(Cl)cn2)c1
IC50 (Cytochrome P450 2C19): > 40 µM
IC50 (Cytochrome P450 3A4 [3]): > 40 µM
remaining at 10 min [4]: 100%
EC60 [5]: > 5.6 µM
IC50 (Cytochrome P450 2C9): > 40 µM
Emax (PXR): 37%
IC50 [1]: 0.04 µM
IC50 [2]: 6.5 µM
remaining at 10 min [6]: 95%
IC50 (Cytochrome P450 2D6): > 40 µM
IC50 (Cytochrome P450 1A2): > 40 µM
IC50 (Cytochrome P450 3A4 [7]): > 40 µM
remaining at 10 min [8]: 100%

SMILES: Fc1cc(OC(F)(F)C(F)F)cc([C@@](Cc2ccccc2)(Nc2nc3c(F)cc(F)cc3[nH]2)c2ccc(Cl)cn2)c1
IC50 (Cytochrome P450 2C19): 3 µM
IC50 (Cytochrome P450 3A4 [3]): 19 µM
remaining at 10 min [4]: 72%
EC60 [5]: > 5.6 µM
IC50 (Cytochrome P450 2C9): 15 µM
Emax (PXR): 25%
IC50 [1]: 0.04 µM
IC50 [2]: 6.4 µM
remaining at 10 min [6]: 100%
IC50 (Cytochrome P450 2D6): 40 µM
IC50 (Cytochrome P450 1A2): 40 µM
IC50 (Cytochrome P450 3A4 [7]): 24 µM
remaining at 10 min [8]: 68%

SMILES: CCc1csc(NC(Cc2ccccc2)(c2cc(F)cc(C(F)(F)F)c2)c2ccc(Cl)cn2)n1 (stereo unspecified)
IC50 [1]: 0.7 µM

SMILES: Fc1cc(C(F)(F)F)cc(C(Cc2ccccc2)(Nc2nnc(-c3ccccc3)[nH]2)c2ccc(Cl)cn2)c1 (stereo unspecified)
IC50 [1]: > 32 µM

More lines, in order of falling IC50 [1], values ahead:

IC50 [1]: 10.8 µM
SMILES: Fc1cc(C(F)(F)F)cc([C@](Cc2ccccc2)(Nc2nc3c(s2)CCCC3)c2ccc(Cl)cn2)c1

IC50 (Cytochrome P450 2C19): 13 µM
IC50 (Cytochrome P450 3A4 [3]): 40 µM
remaining at 10 min [4]: 78%
EC60 [5]: > 17 µM
IC50 (Cytochrome P450 2C9): 40 µM
Emax (PXR): 45%
IC50 [1]: 0.22 µM
IC50 [2]: 14.8 µM
remaining at 10 min [6]: 83%
IC50 (Cytochrome P450 2D6): 40 µM
IC50 (Cytochrome P450 1A2): 40 µM
IC50 (Cytochrome P450 3A4 [7]): 40 µM
remaining at 10 min [8]: 98%
SMILES: Fc1cc(OC(F)(F)C(F)F)cc([C@@](Cc2ccccc2)(Nc2nc(C(F)(F)F)cs2)c2ccc(Cl)cn2)c1

IC50 [1]: 0.2 µM
IC50 [2]: 20.2 µM
SMILES: Fc1cc(C(F)(F)F)cc(C(Cc2ccccc2)(Nc2nc3c(s2)CCCC3)c2ccc(Cl)cn2)c1 (racemic)

IC50 [1]: 0.1 µM
SMILES: Fc1cc(C(F)(F)F)cc(C(Cc2ccccc2)(Nc2nc(C(F)(F)F)c(Br)s2)c2ccc(Cl)cn2)c1 (stereo unspecified)

IC50 [1]: 0.04 µM
IC50 [2]: 5.5 µM
SMILES: Cc1nc(N[C@](Cc2ccccc2)(c2cc(F)cc(OC(F)(F)C(F)F)c2)c2ccc(Cl)cn2)sc1C

remaining at 10 min [4]: 33%
IC50 [1]: 0.04 µM
IC50 [2]: 8.2 µM
AUC [9]: 8.18 µM·h
remaining at 10 min [6]: 56%
concentration at 2 h [10]: 2530 nM
concentration at 8 h [12]: 142 nM
concentration at 4 h [11]: 1240 nM
remaining at 10 min [8]: 73%
SMILES: Fc1cc(C(F)(F)F)cc([C@@](Cc2ccccc2)(Nc2nc3c(s2)CCC3)c2ccc(Cl)cn2)c1
inhibition in vivo at 30 mg/kg (Mus musculus): 26%
